# Paper PMC7563358, “Prolonging the Half-Life of Histone Deacetylase Inhibitor Belinostat via 50 nm Scale Liposomal Subcutaneous Delivery System for Peripheral T-Cell Lymphoma” (Cancers, 2020)
# Where two headings read alike, the source gives them in different places.
# How the values were obtained:
# [1] = In vitro release by dialysis method with fitting to release models; type: physicochemical
# Protocol: An in vitro release study was performed using a dialysis method. Dialysis bags with a molecular-weight cutoff of 6000–8000 Da (pore size 1.8 nm; Orange Scientific, Braine-l’Alleud, Belgium) were soaked with distilled deionized water for 12 h before the experiment. Dialysis bags containing SN38-loaded liposomes, or SN38 solution, were subsequently incubated in flasks containing 15 mL medium (phosphate buffered saline/ethanol 1:1 v/v) in a 37 °C water bath. At appropriate intervals, 500 μL aliquots of the medium were withdrawn for analysis and immediately replaced with an equal volume of fresh medium. Release kinetics were investigated using different models, including zero-order, first-order and Higuchi kinetics. Correlation coefficients and each release equation were calculated from the respective plots.
# [2] = In vitro cytotoxicity of PBMCs; type: cell-based; conditions: male, human, peripheral blood mononuclear cells (PBMCs); 10 μM of belinostat
# Protocol: The cutaneous T-cell lymphoma cell line (HuT-78) was purchased from the Bioresource Collection and Research Center (BCRC, Hsinchu, Taiwan). HuT-78 cells were incubated in 79% Iscove’s modified Dulbecco’s medium (IMDM) with 20% FBS and 1% liquid penicillin–streptomycin and kept in a humidified atmosphere containing 5% CO2 at 37 °C. HuT-78 cells were seeded on 96 well culture plates at a cell density of 1.5 × 10^5 cells per well. After overnight incubation, the medium was replaced with fresh medium containing belinostat free drug and belinostat-loaded liposomal formulations at final concentrations of 0.05, 0.1, 0.5, 1, 5 and 10 μM for 72 h. […] The absorbance was read at 450 nm by an enzyme-linked immunosorbent-assay reader (BioTek Epoch; Thermo Fisher Scientific, Waltham, MA, USA) to measure the quantity of surviving cells. IC50 was calculated using a four-parameter logistic function standard curve analysis of the dose response. The cell cytotoxicity was calculated using the following equation:(2) Cell viability %= ODsample−ODblank/ODcontrol−ODblank×100 % where OD denotes the optical density, ODcontrol represents 100% survival, and ODblank represents no cells.
# Human peripheral blood mononuclear cells (PBMCs) were isolated from the peripheral blood from a healthy volunteer. […] After overnight incubation, the cytotoxicity assay was evaluated. […]
# [3] = parameters: method as in PMID 26921086; conditions: cited from earlier work
# [4] = In vivo pharmacokinetics after subcutaneous administration; conditions: Balb/c mice, single dose 0.333 mg/g
# Protocol: The in vivo pharmacokinetic study was performed on healthy male BALB/c mice (weight: 16–20 g) obtained from the Laboratory Animal Center of the National Science Council, Taipei, Taiwan. All animal experiments were conducted in accordance with institutional guidelines and approved by the Animal Care and Use Committee of Kaohsiung Medical University, Kaohsiung, Taiwan (KMUIACUC-107146). All animals were starved overnight prior to the experiments.
# BALB/c mice were anesthetized by halothane vapor with a vaporizer system. Mice were randomly divided into four groups, including the control group. Belinostat was dissolved in a mixture of 10% DMSO, 10% Cremophor EL, 80% water and a series of liposomal formulations (PC group, PS group, and PC/PS mixture group). It was then administered by subcutaneous injection with a dose of 0.33 mg/g. At time intervals of 5, 10 and 30 min and 1, 2, 3 and 4 h, 100 μL tail vein blood samples were collected in heparin-containing tubes (Vacutainer; BD, Franklin Lakes, NJ, USA) and immediately centrifuged at 3000× g for 10 min. The plasma was collected and stored at −20 °C. Mice were killed at the final time point and liver, spleen, lungs and kidneys were collected, washed with PBS and stored at −20 °C.
# Plasma samples (40 μL) were mixed with 20 μL of internal standard solution (carbamazepine […]) and 1000 μL of methanol was added to induce protein precipitation. The mixture was centrifuged at 3000× g for 10 min and the supernatant was evaporated under vacuum for 2 h. The final dry residue was resuspended in methanol and analyzed by HPLC. Organs were homogenized in 1 mL PBS at 17,800 rpm for 30 s. Subsequently, following the same process, homogenized organs were mixed with internal standard solution and acetonitrile and analyzed by HPLC.
# Correlation coefficients for the pharmacokinetic compartmental model were calculated and predicted using Phoenix WinNonlin V8.1 software (Certara, St. Louis, MO, USA). The area under the concentration–time curve (AUC0–∞) was calculated using the trapezoidal rule. Half-life (T½) and the clearance (Cl), volume of distribution (Vd), absorption rate (Ka) and elimination rate (Ke) were also calculated by software.
# [5] = cited from earlier work
# [6] = test system: HuT-78 cells; experiment: Cell cytotoxicity (CCK-8) on HuT-78; type: cell-based; conditions: Homo sapiens, HuT78; HuT-78, 72 h, CCK-8, n = 6
# Protocol: The cutaneous T-cell lymphoma cell line (HuT-78) was purchased from the Bioresource Collection and Research Center (BCRC, Hsinchu, Taiwan). HuT-78 cells were incubated in 79% Iscove’s modified Dulbecco’s medium (IMDM) with 20% FBS and 1% liquid penicillin–streptomycin and kept in a humidified atmosphere containing 5% CO2 at 37 °C. HuT-78 cells were seeded on 96 well culture plates at a cell density of 1.5 × 10^5 cells per well. After overnight incubation, the medium was replaced with fresh medium containing belinostat free drug and belinostat-loaded liposomal formulations at final concentrations of 0.05, 0.1, 0.5, 1, 5 and 10 μM for 72 h. Cells were washed with PBS and reacted with 10 μL Cell Counting Kit-8 (CCK-8, Dojindo, Kumamoto, Japan) for 2 h. The absorbance was read at 450 nm by an enzyme-linked immunosorbent-assay reader (BioTek Epoch; Thermo Fisher Scientific, Waltham, MA, USA) to measure the quantity of surviving cells. IC50 was calculated using a four-parameter logistic function standard curve analysis of the dose response. The cell cytotoxicity was calculated using the following equation:(2) Cell viability %= ODsample−ODblank/ODcontrol−ODblank×100 % where OD denotes the optical density, ODcontrol represents 100% survival, and ODblank represents no cells.
# [7] = pH 7.4; cited from earlier work
# [8] = In vivo toxicity: complete blood count and liver function markers; conditions: balb/c mice, subcutaneous, 0.333 mg/g, four hours after treatment
# Protocol: BALB/c mice were administered with subcutaneous injections with doses of 0.33 mg/g of belinostat free drug and belinostat-loaded liposomal formulations. […] Blood was analyzed for number of erythrocytes, platelets (Plt) and total white blood cells using an automated blood analyzer (XT-1800i; Sysmex, Kobe, Japan). Hemoglobin, red blood cells and hepatic function were also analyzed. Reference values were obtained from Charles River Laboratory. ALT and AST were also evaluated.
smiles,measurement,setting,value
"O=C(/C=C/c1cccc(S(=O)(=O)Nc2ccccc2)c1)NO [belinostat, Belinostat]",Time until release completely exhausted,[1],≤ 4 h
same,Initial burst release,[1]; within 2 h,80%
same,"viability at 72 h, 10 µM",[2],20%
same,half-life,[3],1.1 h
same,Cl,[4]; n = 3,404.50 ± 138.35 L/h/kg
same,Ka (absorption rate),[4]; n = 3,5.06 ± 2.00 h⁻¹
same,Vd,[4]; n = 3,1735.75 ± 414.86 L/kg
same,AUC(0-inf),"[4]; male, mouse, plasma, sc, n = 3",17500 ± 5990 ng·h/mL
same,Cmax,"[4]; male, mouse, plasma, sc, n = 3",3390 ± 740 ng/mL
same,Tmax,"[4]; male, mouse, plasma, sc, n = 3",0.69 ± 0.31 h
same,half-life,"[4]; male, mouse, plasma, sc, n = 3",3.29 ± 1.84 h
same,k el,"[4]; male, mouse, plasma, sc, n = 3, read-out: Ke (elimination rate) (converted)",6.94e-05 s⁻¹
same,Patients with low platelet count,[5],10–29%
same,Patients with low red blood cell counts,[5]; intravenous (IV) infusion over 30 min,more than 30%
same,IC50,[6],1800 ± 160 nM
same,Solubility,[7],80 µg/mL
same,ALT,[8],125 ± 4.57 U/L
same,Gra,[8],13.47 ± 3.21%
same,Hb,[8],13.63 ± 2.16 g/dL
same,Hct,[8],39.58 ± 3.80%
same,Lym,[8],78.21 ± 6.56%
same,Mon,[8],10.95 ± 2.52%
same,Plt count,[8],230 ± 45.72 10^9/L
same,RBC count,[8],9.29 ± 1.28 10^12/L
same,ST,[8],290 ± 34.48 U/L
same,WBC count,[8],3.42 ± 0.67 10^9/L
